From patent publication US5516784A, “Anti-HIV (AIDS) agents” (Schering Corporation, priority 1994, dated 1996)
In brackets after ≈: the same amount, converted by molar mass.

Assays:
HIV1 protease [1] = biological target: T1, HIV1 protease (Human immunodeficiency virus type 1 group M subtype B, UniProt P04585); experiment: Test 3: inhibition of proteolytic activity of HIV-1 protease by scintillation proximity assay (SPA); assay type: biochemical; details: SPA; room temperature, 40 minutes; read-out: Enzyme Assays (SPA) IC50
Excerpt: TEST 3-INHIBITION OF PROTEOLYTIC ACTIVITY OF HIV-1-PROTEASE AS DETERMINED BY SCINTILLATION […] ASSAY (SPA).
This is an alternative assay to test #1 and is used to determine the ability of compounds to inhibit the HIV1 protease activity. The SPA assay for HIV1 protease has been developed by Amersham Corporation, Arlington Heights, Ill., and is available for commercial use. In this system the substrate for HIV1 protease, AcN-(I^125)[…]SPA bead, is cleaved by the HIV1 protease at the Phe-Phe bond releasing the I^125 -labelled peptide fragment from the SPA bead. This event causes removal of detectable signal from the microsphere bead indicated by reduction in radioactivity (measured in CPM), which is proportional to the proteolytic activity. The substrate, and the HIV 1 protease were incubated in presence of synthetic compound in various dilutions at room temperature for 40 minutes, and the concentration of the compound required to inhibit the proteolytic activity by 50% (IC50) was determined.

HIV-1, isolate III B = experiment: Test 2: inhibition of the growth of HIV-1 in tissue culture cells (CEM-SS, syncytia formation); assay type: cell-based; details: Human immunodeficiency virus 1, 168 h, 7 days, read-out: HIVMIC IC50
Excerpt: TEST 2-INHIBITION OF THE GROWTH OF HIV-1 IN TISSUE CULTURE CELLS
This test measured the capability of the compounds to inhibit the growth of HIV-1 in tissue culture cells. CEM-SS cells (human T-lymphocyte derived tissue culture cells) were infected with HIV-1, isolate III B which was produced in tissue culture. After 7 days, the virus has killed the cells as monitored by extensive syncytia formation (cell fusion). The test measured the capability of the chemical synthetic compounds to prevent syncytia formation and cell death. CEM cells were grown at 37° C. in an atmosphere of 5% CO2. HIV isolate III B was prepared by growth in and crude purification from CEM cells. The chemical synthetic compound was added to 96 well microtiter plates and diluted in varying steps across the wells of the plate. Cells and virus were added to each well and the concentration of the chemical synthetic compound required to inhibit syncytia formation by 50% (the IC50) after 7 days was determined. The viability of CEM cells which are not infected with HIV-1 isolate III B was simultaneously determined by the MTT assay, as described in Mossman, J. Immunolog. Methods 65:55-63, 1983, which is herein incorporated by reference.

HIV1 protease [2] = biological target: T1, HIV1 protease; experiment: Test 1: inhibition of proteolytic activity of HIV-1 protease (HPLC); assay type: biochemical; parameters: proteolytic activity of HIV-1 protease
Experimental: TEST I-INHIBITION OF PROTEOLYTIC ACTIVITY OF HIV-1-PROTEASE
The ability of compounds of the invention to inhibit the proteolytic activity of HIV-1 protease was determined by using the method of Louis, et al., Biochem. Biophys. Res. Comm. 159:87-94, (1989), which is herein incorporated by reference. In using the method of Louis et al., HIV Substrate III, His-Lys-Ala-Arg-VaI-Leu-pNO2 Phe-Glu-Ala-Nle-Ser-NH2 purchased from Bachem Bioscience, Inc. Philadelphia, Pa. was used in place of the nonapeptide substrate […]amide.

[3] = HPLC, HIV Substrate III, read-out: Enzyme Assays (HPLC) IC50

Structure (SMILES)	IC50 (HIV1 protease [1]) [nM]	IC50 (HIV-1, isolate III B) [µg/mL]	IC50 (HIV1 protease [2]; [3]) [nM]	IC50 (HIV1 protease [2]; intermediate compound, read-out: IC50 in Test 1, Inhibition of Proteolytic Activity of HIV-1-Protease) [nM]
CC(C)(C)NC(=O)c1ccccc1OC[C@H](O)[C@H](Cc1ccccc1)NC(=O)[C@H](CC(N)=O)NC(=O)OCc1ccccc1 [IN 1]	80	4.95 (≈ 8.19 µM)	–	–
CCC[C@H](NC(=O)[C@H](CC(N)=O)NC(=O)c1ccc2ccccc2n1)[C@H](O)COc1ccccc1C(=O)NC(C)(C)C [Compound 77]	–	17.5 (≈ 30.3 µM)	–	–
CC(C)(C)NC(=O)c1ccccc1SC[C@H](O)[C@H](Cc1ccccc1)NC(=O)[C@H](CC(N)=O)NC(=O)c1ccc(O)cn1 [Compound 56]	–	–	> 100	–
COc1ccc(C[C@H](NC(=O)c2ccc3ccccc3n2)C(=O)N[C@@H](Cc2ccccc2)[C@@H](O)CSc2ccccc2C(=O)NC(C)(C)C)cc1 [Compound 43]	–	–	> 100	–
CC(C)(C)NC(=O)c1ccccc1SC[C@H](O)[C@H](Cc1ccccc1)NC(=O)[C@H](CC(N)=O)NC(=O)c1ccc2ccccc2n1 [Compound 2]	–	7.99 (≈ 12.4 µM)	< 500	–
CC(C)(C)NC(=O)c1ccccc1OC[C@H](O)[C@H](Cc1ccccc1)NC(=O)[C@H](CC(N)=O)NC(=O)c1cnc2ccccc2n1 [Compound 59]	–	1.41 (≈ 2.25 µM)	5	–
CCn1cc(C(=O)N[C@@H](CC(N)=O)C(=O)N[C@@H](Cc2ccccc2)[C@@H](O)CSc2ccccc2C(=O)NC(C)(C)C)c(=O)c2ccc(C)nc21 [Compound 53]	–	–	> 100	–
CC(C)(C)NC(=O)c1ccccc1OC[C@H](O)[C@H](Cc1ccccc1)NC(=O)[C@H](CC(N)=O)NC(=O)c1ccc2ccccc2[n+]1[O-] [Compound 7]	–	5.69 (≈ 8.87 µM)	50	–
COc1ccc(C[C@H](NC(=O)OC(C)(C)C)C(=O)N[C@@H](Cc2ccccc2)[C@@H](O)CSc2ccccc2C(=O)NC(C)(C)C)cc1 [IN 2]	–	–	> 100	–
CC(C)(C)NC(=O)c1ccccc1OC[C@@H](O)[C@H](Cc1ccccc1)NC(=O)[C@H](CC(N)=O)NC(=O)c1ccc2ccccc2n1 [Compound 5]	–	1.77 (≈ 2.83 µM)	8	–
CC(C)(C)NC(=O)c1ccccc1OC[C@@H](O)[C@@H](NC(=O)[C@H](CC(N)=O)NC(=O)c1ccc2ccccc2n1)c1ccccc1 [Compound 75]	–	–	> 500	–
CCC(C)[C@H](NC(=O)c1ccc2ccccc2n1)C(=O)N[C@@H](Cc1ccccc1)[C@@H](O)COc1ccccc1C(=O)NC(C)(C)C (some centres unmarked) [Compound 37]	–	6.08 (≈ 9.73 µM)	60	–
CC(C)(C)NC(=O)c1ccccc1SC[C@H](O)[C@H](Cc1ccccc1)NC(=O)[C@@H](CC(N)=O)NC(=O)c1ccc2ccccc2n1 [Compound 47]	–	–	> 100	–
CC(C)[C@H](NC(=O)c1ccc2ccccc2n1)C(=O)N[C@@H](Cc1ccccc1)[C@@H](O)CSc1ccccc1C(=O)NC(C)(C)C [Compound 49]	–	19.4 (≈ 30.9 µM)	80	–
CC(C)(C)NC(=O)c1ccccc1SC[C@H](O)[C@H](Cc1ccccc1)NC(=O)[C@@H]1CCCN1C(=O)c1ccc2ccccc2n1 [Compound 32]	–	–	> 50	–
NC(=O)C[C@H](NC(=O)c1ccc2ccccc2n1)C(=O)N[C@@H](Cc1ccccc1)[C@@H](O)CSC1CCCC1C(=O)Nc1ccccc1 (some centres unmarked) [Compound 18]	–	–	> 500	–
CC(C)(C)NC(=O)c1ccccc1SC[C@H](O)[C@H](Cc1ccccc1)NC(=O)[C@H](CC(N)=O)NC(=O)c1ccc2ccccc2c1 [Compound 52]	390	8.58 (≈ 13.4 µM)	–	–
CC(C)[C@H](NC(=O)OC(C)(C)C)C(=O)N[C@@H](Cc1ccccc1)[C@@H](O)CSc1ccccc1C(=O)NC(C)(C)C [IN 4]	–	–	> 100	–
CSCC[C@H](NC(=O)OC(C)(C)C)C(=O)N[C@@H](Cc1ccccc1)[C@@H](O)CSc1ccccc1C(=O)NC(C)(C)C [IN 5]	–	–	> 100	–
NC(=O)C[C@H](NC(=O)c1ccc2ccccc2n1)C(=O)N[C@@H](Cc1ccccc1)[C@H](O)CSc1ccccc1C(=O)NC12CC3CC(CC(C3)C1)C2 [Compound 30]	–	–	> 50	–

Structure (SMILES)	IC50 (HIV1 protease [1]) [nM]	IC50 (HIV-1, isolate III B) [µg/mL]	IC50 (HIV1 protease [2]; [3]) [nM]	IC50 (HIV1 protease [2]; intermediate compound, read-out: IC50 in Test 1, Inhibition of Proteolytic Activity of HIV-1-Protease) [nM]
CC(C)(C)NC(=O)c1ccccc1S(=O)(=O)C[C@H](O)[C@H](Cc1ccccc1)NC(=O)[C@H](CCS(C)(=O)=O)NC(=O)c1ccc2ccccc2n1 [Compound 45]	–	–	> 100	–
CC(C)(C)NC(=O)c1ccccc1SC[C@@H](O)[C@H](Cc1ccccc1)NC(=O)[C@H](CC(N)=O)NC(=O)c1ccc2ccccc2n1 [Compound 3]	–	0.537 (≈ 0.837 µM)	54	–
CC(C)(C)NC(=O)c1ccccc1SC[C@H](O)[C@H](Cc1ccccc1)NC(=O)[C@H](CCC(N)=O)NC(=O)OC(C)(C)C [IN 3]	–	–	> 100	–
CC(C)(C)NC(=O)c1ccccc1SC[C@@H](O)[C@H](CC1CCCCC1)NC(=O)[C@H](CC(N)=O)NC(=O)c1ccc2ccccc2n1 [Compound 78]	230	0.68 (≈ 1.05 µM)	–	–
CC(C)(C)NC(=O)c1ccccc1SC[C@H](O)[C@H](Cc1ccccc1)NC(=O)[C@H](Cc1ccccc1)NC(=O)c1ccc2ccccc2n1 [Compound 33]	–	–	> 500	–
CC(C)(C)NC(=O)c1ccccc1SC[C@H](O)[C@H](Cc1ccccc1)NC(=O)[C@H](CC(N)=O)NC(=O)c1ccccn1 [Compound 54]	–	–	> 100	–
CCC(C)[C@H](NC(=O)c1ccc2ccccc2n1)C(=O)N[C@@H](Cc1ccccc1)[C@@H](O)CSc1ccccc1C(=O)NC(C)(C)C (some centres unmarked) [Compound 35]	–	2.1 (≈ 3.28 µM)	26	–
CC(C)(C)NC(=O)c1ccccc1SC[C@H](O)[C@H](Cc1ccccc1)NC(=O)[C@H](Cc1c[nH]c2ccccc12)NC(=O)OC(C)(C)C [IN 6]	–	–	> 100	–
CCCCNC(=O)c1ccccc1SC[C@H](O)[C@H](Cc1ccccc1)NC(=O)[C@H](CC(N)=O)NC(=O)c1ccc2ccccc2n1 [Compound 8]	–	28.1 (≈ 43.8 µM)	400	–
CC(C)(C)NC(=O)c1ccccc1SCC(O)C(Cc1ccccc1)NC(=O)OC(C)(C)C (centres unmarked)	–	–	–	3000
CC(C)(C)NC(=O)c1ccccc1SC[C@H](O)[C@H](Cc1ccccc1)NC(=O)[C@H](CC(N)=O)NC(=O)c1ccc[n+]([O-])c1 [Compound 57]	–	–	> 100	–
CCCCNC(=O)c1ccccc1S(=O)(=O)C[C@H](O)[C@H](Cc1ccccc1)NC(=O)[C@H](CC(N)=O)NC(=O)c1ccc2ccccc2n1 [Compound 9]	–	–	> 500	–
CC(C)(C)NC(=O)c1ccccc1SC[C@H](O)[C@H](Cc1ccccc1)NC(=O)[C@H](Cc1c[nH]c2ccccc12)NC(=O)c1ccc2ccccc2n1 [Compound 51]	–	–	> 5	–
CC(C)(C)NC(=O)c1ccccc1SC[C@H](O)[C@H](Cc1ccc(O)cc1)NC(=O)[C@H](CC(N)=O)NC(=O)c1ccc2ccccc2n1 [Compound 79]	> 500	9.1 (≈ 13.8 µM)	–	–
NC(=O)C[C@H](NC(=O)c1ccc2ccccc2n1)C(=O)N[C@@H](Cc1ccccc1)[C@@H](O)CSC1CCCC1C(=O)Nc1ccccc1 (some centres unmarked) [Compound 16]	–	–	> 500	–
NC(=O)C[C@H](NC(=O)c1ccc2ccccc2n1)C(=O)N[C@@H](Cc1ccccc1)[C@@H](O)CSC1CCCC1C(=O)Nc1ccccc1 (some centres unmarked) [Compound 20]	–	6.26 (≈ 9.57 µM)	74	–
CC(C)(C)NC(=O)C1CCCC1SCC(O)[C@H](Cc1ccccc1)NC(=O)[C@H](CC(N)=O)NC(=O)c1ccc2ccccc2n1 (some centres unmarked) [Compound 13]	–	5.07 (≈ 8 µM)	300	–
CC(C)(C)NC(=O)c1ccccc1SC[C@H](O)[C@H](Cc1ccccc1)NC(=O)[C@H](CC(N)=O)NC(=O)c1cccc[n+]1[O-] [Compound 55]	–	–	> 100	–
CC(C)(C)NC(=O)c1ccccc1OC[C@H](O)[C@H](Cc1ccccc1)NC(=O)[C@H](CC(N)=O)NC(=O)c1ccc2ccccc2n1 [Compound 4]	–	1.7 (≈ 2.72 µM)	10	–
NC(=O)C[C@H](NC(=O)c1ccc2ccccc2n1)C(=O)N[C@@H](Cc1ccccc1)[C@@H](O)CSc1ncccn1 [Compound 1]	–	–	> 50	–
